Assay results as given in ChEMBL document CHEMBL5370643, “Discovery of MK-1468: A Potent, Kinome-Selective, Brain-Penetrant Amidoisoquinoline LRRK2 Inhibitor for the Potential Treatment of Parkinson's Disease” (J Med Chem, 2023).

Columns and labels:
[1] = Drug metabolism in dog assessed as amide hydrolysis mediated metabolite formation by MetID analysis; assay type: ADME, Canis lupus familiaris
rat Mdrl1 P-gp = test: Efflux ratio of apparent permeability across basolateral to apical over apical to basolateral side in MDCK cells transfected with rat Mdrl1 P-gp incubated for 3 hrs by LC-MS/MS analysis; conditions: dog, MDCK-MDR1
[2] = molecular target: KCNQ1/KCNE1 (IKs, Kv7.1/MinK) (Homo sapiens, UniProt P15382+P51787); test: Inhibition of human KCNQ1/KCNE1 expressed in HEK293 cells at 30 uM by QPatch voltage clamp assay relative to control; assay type: cell-based; conditions: HEK293 cells expressing human KCNQ1/KCNE1
[3] = Cardiotoxicity in guinea pig assessed as increase in QTc interval at 20 to 50 mg/kg, iv administered continuously for 20 min by ECG analysis; assay type: toxicity, organism-based, Cavia porcellus; conditions: in vivo, dose 20-50 mg/kg
[4] = molecular target: Leucine-rich repeat serine/threonine-protein kinase 2 (Homo sapiens, UniProt Q5S007, G2019S); test: Inhibition of recombinant N-terminal GST-fused LRRK2 […] mutant (970 to 2527 residues) (unknown origin) using LRRKtide peptide as substrate assessed as inhibition of substrate phosphorylation preincubated with compound for 15 mins followed by substrate addition and measured after 90 mins in presence of ATP by TR-FRET assay
[5] = Total clearance in Beagle dog at […], iv measured after 24 hrs by LC-MS/MS analysis; assay type: ADME, organism-based, Canis lupus familiaris; conditions: in vivo, dose 0.25 mg/kg
[6] = Intrinsic clearance in rhesus monkey at 1 mg/kg, iv measured after 24 hrs by LC-MS/MS analysis; assay type: ADME, organism-based, Macaca mulatta; conditions: in vivo
[7] = Cardiotoxicity in guinea pig assessed as increase in QRS interval at 20 to 50 mg/kg, iv administered continuously for 20 min by ECG analysis; assay type: toxicity, organism-based, Cavia porcellus; conditions: in vivo, dose 20-50 mg/kg
[8] = AUC in Wistar-Han rat at 300 mg/kg by LC-MS/MS analysis; assay type: ADME, organism-based; design: dose 300 mg/kg; conditions: in vivo
[9] = molecular target: Sodium channel protein type 5 subunit alpha (Homo sapiens, UniProt Q14524); test: (§1) Inhibition of human Nav1.5 expressed in HEK293 cells by QPatch voltage clamp assay; assay type: cell-based
Nav1.5 = Nav1.5 (Homo sapiens, UniProt Q14524); test: as §1; assay type: cell-based; conditions: human, HEK293 cells expressing human Nav1.5
[10] = molecular target: Voltage-dependent L-type calcium channel subunit alpha-1C (Homo sapiens, UniProt Q13936); test: Inhibition of human Cav1.2
[11] = Unbound brain-to-plasma concentration ratio in iv dosed Wistar-Han rat administered as cassette dose by LC-MS/MS analysis; assay type: ADME, organism-based; conditions: read-out: K(p,uu,brain)
[12] = molecular target: Leucine-rich repeat serine/threonine-protein kinase 2 (Homo sapiens) (UniProt Q5S007); test: Inhibition of LRRK2 in human PBMC using LRRKtide peptide as substrate assessed as Ser935 dephosphorylation preincubated with compound for 15 mins followed by substrate addition and measured after 90 mins in presence of ATP by TR-FRET assay; assay type: cell-based; conditions: time 105.0 min
[13] = Oral bioavailability in Wistar-Han rat at 5 mg/kg measured after 24 hrs by LC-MS/MS analysis; assay type: ADME, organism-based; conditions: in vivo
[14] = Toxicity in Wistar-Han rat assessed as tolerance at 50 to 300 mg/kg, qd; assay type: organism-based; conditions: in vivo, dose 50-300 mg/kg
[15] = Intrinsic clearance in Beagle dog at […], iv measured after 24 hrs by LC-MS/MS analysis; assay type: ADME, organism-based, Canis lupus familiaris; conditions: in vivo, dose 0.25 mg/kg
hERG = hERG (Homo sapiens, UniProt Q12809); test: (§2) Inhibition of hERG expressed in CHO cells by QPatch voltage clamp assay; conditions: human, CHO cells expressing hERG
[16] = molecular target: Voltage-gated inwardly rectifying potassium channel KCNH2 (Homo sapiens, UniProt Q12809); test: as §2
[17] = molecular target: MAP/microtubule affinity-regulating kinase 3 (Homo sapiens, UniProt P27448); test: Inhibition of recombinant human full length MARK3 expressed in insect cells using CHKtide as substrate preincubated with compound for 15 mins followed by substrate addition and measured after 15 mins in the presence of ATP by scintillation based radiometric LeadHunter assay
[18] = MRT in rhesus monkey at 1 mg/kg, iv measured after 24 hrs by LC-MS/MS analysis; assay type: ADME, organism-based, Macaca mulatta; conditions: in vivo
[19] = MRT in Beagle dog at […], iv measured after 24 hrs by LC-MS/MS analysis; assay type: ADME, organism-based, Canis lupus familiaris; conditions: in vivo, dose 0.25 mg/kg
[20] = MRT in Wistar-Han rat at 2 mg/kg, iv measured after 24 hrs by LC-MS/MS analysis; assay type: ADME, organism-based; conditions: in vivo
[21] = Lipophilicity, logD of compound at pH 7 by HT-HPLC/DAD analysis; assay type: physicochemical; conditions: buffer
[22] = AUC in Wistar-Han rat at 50 mg/kg by LC-MS/MS analysis; assay type: ADME, organism-based; design: dose 50 mg/kg; conditions: in vivo
rat Mdr1a P-gp = test: Apparent permeability across apical to basolateral side in LLC-PK1 cells transfected with rat Mdr1a P-gp incubated for 3 hrs by LC-MS/MS analysis; conditions: pig
[23] = Intrinsic clearance in Wistar-Han rat at 2 mg/kg, iv measured after 24 hrs by LC-MS/MS analysis; assay type: ADME, organism-based; conditions: in vivo
mouse BCRP = test: Efflux ratio of apparent permeability across basolateral to apical over apical to basolateral side in MDCK-II cells transfected with mouse BCRP incubated for 3 hrs by LC-MS/MS analysis; conditions: dog
[24] = Oral bioavailability in rhesus monkey at 2 mg/kg measured after 24 hrs by LC-MS/MS analysis; assay type: ADME, organism-based, Macaca mulatta; conditions: in vivo
[25] = Oral bioavailability in Beagle dog at 1 mg/kg measured after 24 hrs by LC-MS/MS analysis; assay type: ADME, organism-based, Canis lupus familiaris; conditions: in vivo
[26] = Cardiotoxicity in guinea pig assessed as increase in PR interval at 20 to 50 mg/kg, iv administered continuously for 20 min by ECG analysis; assay type: toxicity, organism-based, Cavia porcellus; conditions: in vivo, dose 20-50 mg/kg
[27] = Total clearance in Wistar-Han rat at 2 mg/kg, iv measured after 24 hrs by LC-MS/MS analysis; assay type: ADME, organism-based; conditions: in vivo
[28] = Total clearance in rhesus monkey at 1 mg/kg, iv measured after 24 hrs by LC-MS/MS analysis; assay type: ADME, organism-based, Macaca mulatta; conditions: in vivo

Nav1.5, sequence (Q14524 whole entry): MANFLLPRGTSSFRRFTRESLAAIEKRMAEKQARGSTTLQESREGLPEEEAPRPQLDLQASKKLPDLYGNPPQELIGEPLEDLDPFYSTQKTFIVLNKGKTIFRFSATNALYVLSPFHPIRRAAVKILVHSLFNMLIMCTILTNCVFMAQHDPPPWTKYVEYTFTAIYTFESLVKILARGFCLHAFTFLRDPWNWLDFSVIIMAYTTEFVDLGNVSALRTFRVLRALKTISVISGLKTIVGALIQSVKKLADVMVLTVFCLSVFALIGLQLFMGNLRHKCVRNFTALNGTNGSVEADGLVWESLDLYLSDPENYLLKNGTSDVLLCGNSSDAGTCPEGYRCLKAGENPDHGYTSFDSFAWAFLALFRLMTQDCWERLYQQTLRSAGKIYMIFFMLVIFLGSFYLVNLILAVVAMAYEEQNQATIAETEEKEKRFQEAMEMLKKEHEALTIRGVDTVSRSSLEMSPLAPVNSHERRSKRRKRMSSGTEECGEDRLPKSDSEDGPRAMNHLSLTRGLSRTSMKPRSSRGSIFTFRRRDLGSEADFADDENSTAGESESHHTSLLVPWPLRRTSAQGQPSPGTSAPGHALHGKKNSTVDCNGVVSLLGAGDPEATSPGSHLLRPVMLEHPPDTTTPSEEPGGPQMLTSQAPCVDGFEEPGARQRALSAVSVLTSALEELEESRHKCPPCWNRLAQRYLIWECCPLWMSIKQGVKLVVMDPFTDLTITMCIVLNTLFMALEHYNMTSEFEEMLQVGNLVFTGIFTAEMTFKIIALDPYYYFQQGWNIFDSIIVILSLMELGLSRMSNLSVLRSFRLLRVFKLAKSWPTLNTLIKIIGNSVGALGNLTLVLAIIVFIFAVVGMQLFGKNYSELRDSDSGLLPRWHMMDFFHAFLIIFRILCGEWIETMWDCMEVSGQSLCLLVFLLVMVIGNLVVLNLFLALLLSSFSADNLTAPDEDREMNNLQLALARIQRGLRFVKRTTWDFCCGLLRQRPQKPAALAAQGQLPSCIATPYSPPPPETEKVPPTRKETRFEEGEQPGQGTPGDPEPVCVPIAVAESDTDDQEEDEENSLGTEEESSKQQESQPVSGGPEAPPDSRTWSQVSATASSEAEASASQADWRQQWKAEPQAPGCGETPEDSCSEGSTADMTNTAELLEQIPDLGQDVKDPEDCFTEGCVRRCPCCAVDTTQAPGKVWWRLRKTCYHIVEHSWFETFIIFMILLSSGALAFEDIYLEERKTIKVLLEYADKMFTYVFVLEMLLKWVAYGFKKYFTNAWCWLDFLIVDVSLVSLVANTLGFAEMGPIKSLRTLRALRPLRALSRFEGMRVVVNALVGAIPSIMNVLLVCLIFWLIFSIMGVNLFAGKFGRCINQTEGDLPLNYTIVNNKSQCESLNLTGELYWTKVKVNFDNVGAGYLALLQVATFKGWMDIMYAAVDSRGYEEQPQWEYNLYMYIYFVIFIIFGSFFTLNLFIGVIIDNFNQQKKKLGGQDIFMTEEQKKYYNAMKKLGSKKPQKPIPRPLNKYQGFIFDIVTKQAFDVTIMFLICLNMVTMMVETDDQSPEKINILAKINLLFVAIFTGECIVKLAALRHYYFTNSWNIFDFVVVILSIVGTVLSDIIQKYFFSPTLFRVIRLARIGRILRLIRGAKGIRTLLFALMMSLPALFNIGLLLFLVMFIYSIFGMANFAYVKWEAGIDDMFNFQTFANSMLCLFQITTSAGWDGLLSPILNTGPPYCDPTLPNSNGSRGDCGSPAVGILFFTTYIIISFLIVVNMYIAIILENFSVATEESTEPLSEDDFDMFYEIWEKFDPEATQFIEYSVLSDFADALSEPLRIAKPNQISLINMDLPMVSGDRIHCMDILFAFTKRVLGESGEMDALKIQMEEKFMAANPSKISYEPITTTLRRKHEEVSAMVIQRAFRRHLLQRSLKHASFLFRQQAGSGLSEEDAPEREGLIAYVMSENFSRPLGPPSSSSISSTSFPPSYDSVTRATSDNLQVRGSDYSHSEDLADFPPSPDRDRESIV
Sodium channel protein type 5 subunit alpha, sequence (Q14524 whole entry): as above
KCNQ1/KCNE1 (IKs, Kv7.1/MinK), sequence (P51787 whole entry): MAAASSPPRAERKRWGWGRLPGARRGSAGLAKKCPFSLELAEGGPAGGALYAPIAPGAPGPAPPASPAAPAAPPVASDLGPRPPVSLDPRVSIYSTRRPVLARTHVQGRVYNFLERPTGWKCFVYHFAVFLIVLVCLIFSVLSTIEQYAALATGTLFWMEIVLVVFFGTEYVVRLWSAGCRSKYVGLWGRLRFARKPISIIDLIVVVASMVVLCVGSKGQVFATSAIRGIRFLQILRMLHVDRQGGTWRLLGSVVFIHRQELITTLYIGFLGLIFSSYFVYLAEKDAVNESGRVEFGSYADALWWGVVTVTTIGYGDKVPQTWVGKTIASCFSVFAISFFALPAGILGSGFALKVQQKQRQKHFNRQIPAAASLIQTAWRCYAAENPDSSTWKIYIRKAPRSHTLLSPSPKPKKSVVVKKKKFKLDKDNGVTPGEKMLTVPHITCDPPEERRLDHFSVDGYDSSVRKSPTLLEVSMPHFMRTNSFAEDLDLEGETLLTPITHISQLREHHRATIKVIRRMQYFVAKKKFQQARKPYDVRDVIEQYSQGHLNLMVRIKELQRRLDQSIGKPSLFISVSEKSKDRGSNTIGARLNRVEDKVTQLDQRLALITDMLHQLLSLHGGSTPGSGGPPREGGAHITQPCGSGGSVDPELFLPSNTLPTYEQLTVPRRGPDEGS

Drug metabolism [1]: Metabolite_Notdetected
efflux ratio at 3 h (rat Mdrl1 P-gp): 1.5
inhibition at 30 µM [2]: 15%
IC50 [4]: 3 nM
clearance at 24 h [5]: 9 mL/min/kg
CL [6]: 341 mL/min/kg
AUC [8]: 458 µM·h
Kp uu [11]: 0.6
fIC50 [12]: 2.8 nM
bioavailability [13]: 100%
CL [15]: 341 mL/min/kg
IC50 [17]: 29 nM
MRT [18]: 10 h
MRT at 24 h [19]: 33 h
MRT [20]: 9 h
logD [21]: 3
AUC [22]: 111 µM·h
Papp A→B at 3 h (rat Mdr1a P-gp): 30 ×10⁻⁶ cm/s
CL [23]: 271 mL/min/kg
efflux ratio at 3 h (mouse BCRP): 1.1
bioavailability [24]: 21%
bioavailability [25]: 81%
clearance [27]: 11 mL/min/kg
clearance [28]: 13 mL/min/kg
Structure (SMILES): C[C@@]1(N2CCC(c3cc4cc(NC(=O)C5CC56CC6)ncc4cc3Cl)CC2)COC[C@@H]1O (stereo partly drawn)
Activity [3]: Toxic
Activity [7]: Toxic
IC50 [9]: 28000 nM
IC20 (Nav1.5): 10000 nM
inhibition (INH) [10]: Not Active
Activity [14]: Non-Toxic
IC20 (hERG): 1300 nM
IC50 [16]: 3700 nM
Activity [26]: Toxic
